Reference: PMC4045134, “Discovery of Triterpenoids as Reversible Inhibitors of α/β-hydrolase Domain Containing 12 (ABHD12)” (PLoS ONE, 2014)

Tests used:
Type in all cases: biochemical
[1] = target: T1, hABHD12 (Homo sapiens, UniProt Q8N2K0); assay: Fluorescent glycerol assay of 1-AG hydrolysis in hABHD12-HEK293 lysates; details: for Emax: read-out: max inhibition (converted)
T1 construct: expressed in transfected cells; host or cells: HEK293 (transient)
T1 sequence (Q8N2K0 1-398): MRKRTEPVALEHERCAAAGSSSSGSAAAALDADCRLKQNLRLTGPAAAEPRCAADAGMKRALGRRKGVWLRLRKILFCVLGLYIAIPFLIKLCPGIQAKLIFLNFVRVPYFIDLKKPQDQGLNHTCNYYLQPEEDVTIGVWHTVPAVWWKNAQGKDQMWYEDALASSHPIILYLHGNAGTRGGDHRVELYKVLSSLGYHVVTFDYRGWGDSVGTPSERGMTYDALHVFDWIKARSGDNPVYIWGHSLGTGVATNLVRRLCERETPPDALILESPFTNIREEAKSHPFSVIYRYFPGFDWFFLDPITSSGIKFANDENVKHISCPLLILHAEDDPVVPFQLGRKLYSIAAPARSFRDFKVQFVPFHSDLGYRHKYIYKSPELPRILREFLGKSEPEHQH
Method: (§1) Glycerol liberated from 1-AG hydrolysis was determined with a sensitive fluorescent assay using lysates of HEK293 cells with transient overexpression of hABHD12, hABHD6 or hMAGL, essentially as previously described. […] Fluorescence (λex 530; λem 590 nm) was monitored using a Tecan Infinite M200 plate reader (Tecan Group Ltd., Männedorf, Switzerland). Inhibitory activities of selected compounds towards FAAH were determined using membranes of hFAAH overexpressing COS-7 cells, essentially as previously described. The final incubation volume (100 µL) contained 1 µg of protein and the substrate concentration was 20 µM (10 nM of ^3H-anandamide having specific activity of 60 Ci/mmol and concentration of 1 mCi/mL).

[2] = target: T2, hFAAH (Homo sapiens, UniProt O00519); assay: FAAH activity, membranes of hFAAH overexpressing COS-7 cells, 3H-anandamide; details: read-out: hFAAH Remaining activity % control (mean (range)), n=2
T2 construct: expressed in transfected cells; host or cells: COS-7
T2 sequence (O00519 1-579): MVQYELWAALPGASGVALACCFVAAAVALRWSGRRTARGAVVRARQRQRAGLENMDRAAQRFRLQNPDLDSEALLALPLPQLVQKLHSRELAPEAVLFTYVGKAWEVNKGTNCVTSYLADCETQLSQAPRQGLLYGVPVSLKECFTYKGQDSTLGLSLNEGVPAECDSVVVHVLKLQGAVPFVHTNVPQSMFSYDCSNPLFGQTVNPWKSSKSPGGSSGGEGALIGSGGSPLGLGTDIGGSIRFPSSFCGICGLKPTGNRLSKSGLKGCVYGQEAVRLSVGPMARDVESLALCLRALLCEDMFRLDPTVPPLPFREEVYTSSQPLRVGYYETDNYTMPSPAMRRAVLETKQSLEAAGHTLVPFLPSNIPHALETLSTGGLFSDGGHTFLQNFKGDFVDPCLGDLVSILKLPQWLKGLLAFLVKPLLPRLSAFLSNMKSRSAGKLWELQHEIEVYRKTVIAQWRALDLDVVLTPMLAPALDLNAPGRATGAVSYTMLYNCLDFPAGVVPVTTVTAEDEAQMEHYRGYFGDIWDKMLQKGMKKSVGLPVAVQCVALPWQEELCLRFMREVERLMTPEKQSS
Method: as §1

[3] = target: T3, hABHD6 (Homo sapiens, UniProt Q9BV23); assay: Fluorescent glycerol assay in hABHD6-HEK293 lysates; details: for remaining activity at 10 µM: NI = no inhibition at 10 µM, read-out: hABHD6 Remaining activity % control ± s.e.m (n=3)
T3 construct: expressed in transfected cells; host or cells: HEK293 (transient)
T3 sequence (Q9BV23 1-337): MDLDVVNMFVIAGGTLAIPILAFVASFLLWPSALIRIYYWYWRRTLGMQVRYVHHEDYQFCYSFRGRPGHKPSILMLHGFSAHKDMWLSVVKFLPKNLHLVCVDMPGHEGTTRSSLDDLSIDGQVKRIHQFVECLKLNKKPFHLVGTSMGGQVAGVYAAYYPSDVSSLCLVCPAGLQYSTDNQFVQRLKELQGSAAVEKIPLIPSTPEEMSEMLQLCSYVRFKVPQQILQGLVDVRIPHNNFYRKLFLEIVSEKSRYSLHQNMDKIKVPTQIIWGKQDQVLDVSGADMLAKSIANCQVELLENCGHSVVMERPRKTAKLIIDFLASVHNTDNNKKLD
Method: as §1

[4] = target: T4, hMAGL (Homo sapiens, UniProt Q99685); assay: Fluorescent glycerol assay in hMAGL-HEK293 lysates; details: for remaining activity at 10 µM: read-out: hMAGL Remaining activity % control ± s.e.m (n=3)
T4 construct: expressed in transfected cells; host or cells: HEK293 (transient)
T4 sequence (Q99685 1-303): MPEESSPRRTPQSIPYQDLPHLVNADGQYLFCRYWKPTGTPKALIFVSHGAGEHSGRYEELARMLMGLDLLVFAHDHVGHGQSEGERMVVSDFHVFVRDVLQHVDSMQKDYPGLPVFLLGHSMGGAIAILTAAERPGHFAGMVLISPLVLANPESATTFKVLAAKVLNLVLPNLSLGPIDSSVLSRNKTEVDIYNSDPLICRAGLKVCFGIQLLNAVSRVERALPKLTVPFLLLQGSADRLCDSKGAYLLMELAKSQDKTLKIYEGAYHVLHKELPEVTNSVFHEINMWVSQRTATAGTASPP
Method: as §1

[5] = target: T5, hCB2R (Homo sapiens, UniProt P34972); assay: [35S]GTPγS binding, CB2R agonist activity, hCB2R-CHO cell membranes
T5 construct: expressed in transfected cells; host or cells: CHO
T5 sequence (P34972 whole entry): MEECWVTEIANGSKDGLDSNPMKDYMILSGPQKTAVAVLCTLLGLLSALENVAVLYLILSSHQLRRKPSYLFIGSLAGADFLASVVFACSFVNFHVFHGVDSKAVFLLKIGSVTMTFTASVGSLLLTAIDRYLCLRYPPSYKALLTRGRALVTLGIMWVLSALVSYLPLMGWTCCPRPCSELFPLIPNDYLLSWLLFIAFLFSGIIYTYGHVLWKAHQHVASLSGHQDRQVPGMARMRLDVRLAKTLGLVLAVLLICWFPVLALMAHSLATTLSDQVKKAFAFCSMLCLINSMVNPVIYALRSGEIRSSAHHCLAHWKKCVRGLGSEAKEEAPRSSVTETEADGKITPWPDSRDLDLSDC

[6] = target: T1, hABHD12; assay: LC-MS assay of ABHD12 activity (1-AG utilization / AA formation) in hABHD12-HEK293 lysates; details: n = 2, dose-response by LC-MS; for IC50: s.d.
Method: The fluorescent glycerol assay was mimicked otherwise but instead of assaying glycerol, utilization of 1-AG and concomitant formation of AA was monitored by LC-MS analysis. […] Enzymatic reaction was stopped by adding 400 µL of cold 11 mM H3PO4 in acetonitrile. 150 µL aliquots were filtered using Captiva 96-well filter plate (0.2 µm, Agilent Technologies, USA) into the Captiva 96-well collection plate (Agilent Technologies, USA) containing 50 µL of 0.1% formic acid in H2O. The collection plate was centrifuged at 4°C for 10 minutes and the samples were analyzed by LC-MS. HPLC system consisted of an Agilent 1200 Series Rapid Resolution LC System (Agilent Technologies, Waldbronn, Germany) with a solvent micro vacuum degasser, a binary pump, a thermostatted column compartment, and an autosampler. The mass analysis was made with an Agilent 6410 Triple Quadrupole MS equipped with an electrospray ionization (ESI) source (Agilent Technologies, Palo Alto, CA, USA). Five microliters of the sample solution were injected onto a reversed-phase HPLC column (Zorbax Eclipse XDB-C18 Rapid Resolution HT 2.1 mm×50 mm, 1.8 µm) (Agilent Technologies, Palo Alto, CA, USA) using an isocratic mobile phase consisting of 0.1% formic acid in a solution of H2O and methanol (20∶80 v/v) delivered at 0.5 mL/min. Column temperature was maintained at 50°C and the autosampler tray temperature was set at 4°C. The following ionization conditions were used for 1-AG: positive ESI mode, drying gas (nitrogen) temperature 300°C, drying gas flow rate 8 L/min, nebulizer pressure 40 psi, and capillary voltage 4000 V. The following ionization conditions were used for AA: negative ESI mode, drying gas (nitrogen) temperature 300°C, drying gas flow rate 8 L/min, nebulizer pressure 40 psi, and capillary voltage 4000 V. Analyte detection was performed using multiple reaction monitoring (MRM) with the following transitions: m/z 379 → 287 for 1-AG and m/z 303 → 303 for AA. Fragmentor voltage and collision energy for 1-AG and AA were 130 V/8 V and 175 V/2 V, respectively. […] In addition, the 2-AG positional isomer is chromatographically separated from 1-AG with retention time 2.1 min, and the peak areas of 1-AG and 2-AG were subsequently combined for all quantitative analyses reported and are thus collectively termed “1-AG”. The calibration range of 0.1–2,000 ng/mL and 0.1–1,000 ng/mL was prepared for monitored 1-AG and AA, respectively. The lower limit of quantification (LLOQ) for both analytes, 1-AG and AA, was 1.0 ng/mL.

[7] = target: T6, CB1R (Rattus norvegicus, UniProt P20272); assay: [35S]GTPγS binding, CB1R antagonist activity, rat cerebellar membranes; details: 10 µM
T6 construct: membranes prepared from brain tissue of 4-week-old male rodents were used; from tissue; host or cells: rat cerebellar membranes
T6 sequence (P20272 whole entry): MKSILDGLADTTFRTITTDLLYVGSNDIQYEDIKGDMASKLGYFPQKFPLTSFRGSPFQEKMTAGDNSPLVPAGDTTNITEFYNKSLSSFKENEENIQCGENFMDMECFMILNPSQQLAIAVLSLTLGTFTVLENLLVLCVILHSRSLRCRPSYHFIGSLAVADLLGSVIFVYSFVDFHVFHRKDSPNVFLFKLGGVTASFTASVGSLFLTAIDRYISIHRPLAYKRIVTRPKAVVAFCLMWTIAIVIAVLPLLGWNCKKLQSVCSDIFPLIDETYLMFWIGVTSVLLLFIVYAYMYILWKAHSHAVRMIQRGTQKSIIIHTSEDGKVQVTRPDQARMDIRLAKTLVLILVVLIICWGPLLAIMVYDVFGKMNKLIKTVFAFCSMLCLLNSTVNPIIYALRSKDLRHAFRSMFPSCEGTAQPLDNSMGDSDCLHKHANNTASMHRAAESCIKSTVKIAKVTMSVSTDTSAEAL
Method: (§2) The CB1 and CB2 receptor activity of the selected compounds (10 µM) were measured using the GTPγS binding assay according to the previously described methods, [33].
(§3) For ABPP experiments (Figure 6C) and cannabinoid receptor activity assays (Table S2), membranes prepared from brain tissue of 4-week-old male rodents were used. The animals were obtained from the National Laboratory Animal Centre, University of Eastern Finland. Approval for the harvesting of animal tissue was obtained from the local welfare officer of the University of Eastern Finland.

[8] = target: T6, CB1R; assay: [35S]GTPγS binding, CB1R agonist activity, rat cerebellar membranes
Method: as §2, §3

[9] = hABHD12-HEK293 lysates, three independent experiments, read-out: -logIC50±s.e.m. (converted)
[10] = hABHD12-HEK293 lysates, read-out: IC50

Molecule | IC50 [1, 10] | Emax ([1]; hABHD12-HEK293 lysates) | remaining activity at 10 µM [2] | remaining activity at 10 µM [3] | remaining activity at 10 µM [4] | IC50 [6] | also measured
C=C(C)[C@@H]1CC[C@]2(C=O)CC[C@]3(C)[C@H](CC[C@@H]4[C@@]5(C)CCC(=O)C(C)(C)[C@@H]5CC[C@]43C)[C@@H]12 [Compound 17] | 4.4 µM | 57% | 95% | 93.6 ± 3.8% | 84.1 ± 4.8% |  | IC50 [1, 9]: 4.47 µM
SR144528 |  |  |  |  |  |  | CB2R agonist activity [35S]GTPγS binding % Basal (Mean (range), n=2) ([5]; 1 µM): 68 (60-76) % Basal
C[C@H]1[C@H](C)CC[C@]2(C(=O)O)CC[C@]3(C)C(=CC[C@@H]4[C@@]5(C)CC[C@H](O)C(C)(C)[C@@H]5CC[C@]43C)[C@H]12 [Compound 4, Ursolic acid, reference compound] |  |  |  |  |  | 1.82 µM | hABHD12 inhibitory activity (in words) [1]: selectively inhibit ABHD12; remaining activity at 10 µM ([1]; hABHD12-HEK293 lysates, 10 µM, NI = no inhibition, read-out: Remaining activity at 10 µM % ± s.e.m.): ~30%; effect on ABHD6 activity ([3]; preliminary screening): negligible effect; effect on MAGL activity ([4]; preliminary screening): negligible effect
C=C(C)[C@@H]1CC[C@]2(C(=O)O)CC[C@]3(C)[C@H](CC[C@@H]4[C@@]5(C)CCC(=O)NC(C)(C)[C@@H]5CC[C@]43C)[C@@H]12 [Compound 36] | 9.1 µM | 88% | 88% | 80 ± 4.4% | 54.1 ± 4.7% |  | 
C=C(C)[C@@H]1CC[C@]2(C=NO)CC[C@]3(C)[C@H](CC[C@@H]4[C@@]5(C)CC[C@H](O)C(C)(C)[C@@H]5CC[C@]43C)[C@@H]12 [Compound 24] | 6.5 µM | 61% | 95% | 92.4 ± 3.9% | 86 ± 4.3% |  | 
C=C(C)[C@@H]1CC[C@]2(C(=O)O)CC[C@]3(C)[C@H](CC[C@@H]4[C@@]5(C)CC6OC(C)(C)OC6C(C)(C)[C@@H]5CC[C@]43C)[C@@H]12 (some centres unmarked) [Compound 31] | 7.5 µM | 90% | 91% | 93.2 ± 3% | 82.7 ± 4.1% |  | IC50 [1, 9]: 7.41 µM
C=C(C)[C@@H]1CC[C@]2(C(=O)O)CC[C@]3(C)[C@H](CC[C@@H]4[C@@]5(C)CC[C@H](O)C(C)(C)[C@@H]5CC[C@]43C)[C@@H]12 [Compound 1, Betulinic acid, reference compound] |  |  | 83% | ~70% | 76.7 ± 0.1% | 2.51 µM | CB2R agonist activity [35S]GTPγS binding % Basal (Mean (range), n=2) ([5]; 10 µM): 132 (106-158) % Basal; CB1R antagonist activity [35S]GTPγS binding % HU210-evoked response (Mean (range), n=2) [7]: 99 (98-99) % HU210-evoked response; CB1R agonist activity [35S]GTPγS binding % Basal (Mean (range), n=2) ([8]; 10 µM): 91 (87-96) % Basal
CCCCCCC(C)(C)c1cc(O)c2c(c1)OC(C)(C)[C@@H]1CC=C(CO)C[C@@H]21 [HU210] |  |  |  |  |  |  | CB2R agonist activity [35S]GTPγS binding % Basal (Mean (range), n=2) ([5]; 10 nM): 354 (348-361) % Basal; CB1R agonist activity [35S]GTPγS binding % basal ± SEM, n > 3 ([8]; reference compound at 1 µM): 430 ± 36 % Basal
C=C(C)[C@@H]1CC[C@]2(C=NO)CC[C@]3(C)[C@H](CC[C@@H]4[C@@]5(C)CCC(=NO)C(C)(C)[C@@H]5CC[C@]43C)[C@@H]12 [Compound 25] |  |  | 97% | 103 ± 2.3% | 88.7 ± 4.2% | 3.98 µM | max inhibition [6]: 76%
C=C(C)[C@@H]1CC[C@]2(C(=O)O)CC[C@]3(C)[C@H](CC[C@@H]4[C@@]5(C)CCC(=O)C(C)(C)[C@@H]5CC[C@]43C)[C@@H]12 [Compound 18] |  |  |  |  |  | 3.31 µM | max inhibition [6]: 100%
